We go through 31 molecules from the SangsterLogP compilation.

Assay in the first series: not given
Conditions: not given
In the case of `FC(F)(F)c1nc2c(Cl)c(Cl)c(Cl)cc2[nH]1`, the lipophilicity (logP) (as a rule, a log measure of how a compound divides between an organic and an aqueous phase) came out at 3.87.
The molecule `Brc1nn[nH]c1Br` showed a logP of 2.44.
Molecule `Ic1nc(I)c(I)[nH]1` came in with a logP of 2.78.
On to `CCCCCCCCc1ccc2[nH]c(C(F)(F)F)nc2c1`, for which the log partition coefficient (logP) worked out at 4.38.
Same read-out and setting: the result for `Brc1n[nH]c(Br)n1` reads 2.24.
Still for that read-out and setting: the result for `FC(F)(F)c1nc2cc(Br)c(Br)cc2[nH]1` reads 4.15; that for `FC(F)(F)c1nc2ccccc2[nH]1`, 2.67.
As to `FC(F)(F)c1nc2cc(Br)ccc2[nH]1`, the logP turned out to be 3.57.
The same measure, in the same setting: the result for `Cc1c(C)c(Cl)c2[nH]c(C(F)(F)F)nc2c1Cl` reads 3.19.
On the same count and under the same terms, the figure for `Clc1nc(Cl)c(Cl)[nH]1` is 1.85; for `CSc1nc2cc(Cl)ccc2[nH]1` it is 3.22; for `Brc1nc(Br)c2[nH]c(Br)nc2n1` it is 3.08.
Same read-out and setting: the result for `FC(F)(F)c1nc2cc(Cl)c(Cl)cc2[nH]1` reads 3.99.
Regarding `FC(F)(F)c1nc2c(Cl)c(Cl)cc(Cl)c2[nH]1`, the logP turned out to be 3.78.
Molecule `FC(F)(F)c1nc2c(Cl)cccc2[nH]1` had a logP of 2.93.
Still for that read-out and setting: the result for `CCCCc1ccc2[nH]c(C(F)(F)F)nc2c1` reads 4.27; that for `FC(F)(F)c1nc2c(Br)c(Br)c(Br)cc2[nH]1`, 4.08.
Same read-out and setting: the result for `FC(F)(F)c1nc2c(Cl)cc(Cl)cc2[nH]1` reads 3.49; that for `FC(F)(F)c1nc2c(Cl)c(Cl)c(Cl)c(Cl)c2[nH]1`, 3.97; that for `FC(F)(F)c1nc2c(Br)c(Br)c(Br)c(Br)c2[nH]1`, 4.81.
On the same count and under the same terms, the result for `FC(F)(F)c1nc2cc(Cl)ccc2[nH]1` reads 3.39; that for `Cc1cc2nc[nH]c2cc1C`, 2.35; that for `O=[N+]([O-])c1ccc2[nH]c(C(F)(F)F)nc2c1`, 2.68.
In the case of `FC(F)(F)c1nc2c(Cl)c(Cl)ccc2[nH]1`, the logP stood at 3.49.
In turn, `FC(F)(F)c1nc2c(Cl)ccc(Cl)c2[nH]1` had a log partition coefficient (logP) of 2.87.

The nature of a further series: from Büchel, K. H., & Draber, W. (1969). Structure-activity relationship of photosynthesis inhibition by NH-acidic pi-excessive heteroaromatics. In H. Metzner (Ed.), Progress in Photosynthesis Research: …. Particulars: pH 7.3.
For the molecule `FC(F)(F)c1nc2nc3ccccc3nc2[nH]1`, the log distribution coefficient (logD) – broadly, the decadic logarithm of the distribution of all forms, ionised or not, between an organic phase and buffer at a given pH – worked out at 3.08.
The same measure, in the same setting: the figure for `FC(F)(F)c1nc2cnccc2[nH]1` is 0.94; for `FC(F)(F)c1nc2ncccc2[nH]1` it is 1.38.
Still for that read-out and setting: the result for `FC(F)(F)c1nc2nc3cc(Cl)ccc3nc2[nH]1` reads 3.91; that for `FC(F)(F)c1nc2nc3c(Cl)cc(Cl)cc3nc2[nH]1`, 5.18; that for `FC(F)(F)c1nc2ncc(Cl)cc2[nH]1`, 2.46.
